Results published in patent publication US10307410B2, “Mcl-1 modulating compounds for cancer treatment” (CENTRE REGIONAL DE LUTTE CONTRE LE CANCER FRANCOIS BACLESSE, priority 2014, dated 2019).

What was measured:
Assay type in all cases: cell-based
Noxa/Mcl-1 interaction = target: T1, Noxa/Mcl-1 interaction (Homo sapiens, UniProt Q07820); assay: BRET assay, Noxa/Mcl-1 interaction; settings: BRET in Hela cells, 10 μM, 16 hours
T1 construct: expressed in transfected cells; host or cells: HeLa cells
Procedure: (§1) Hela cells were seeded on 6-well plates and transfected with 200 ng/well of plasmid pRLuc-Bax, pRLuc-Puma or pRLuc-Noxa coding for BRET donors and 1 µg/well of peYFP-Bcl-xL or peYFP-Mcl-1 coding for BRET acceptors (or with pCMV-Bcl-xL or pCMV-Mcl-1 for control). Twenty-four hours after transfection, cells were trypsinized and re-seeded into white 96 well plate flat bottom, incubated for another day, and then treated with drugs for 16 hours at 10 μM. Light emission at 485 nm and 530 nm was measured consecutively using the Mithras fluorescence-luminescence detector LB 940 (Berthold) after adding the luciferase substrate, coelenterazine H (Uptima) at a final concentration of 5 μM. BRET ratios were calculated as described [Terrillon et al. (2003) Mol Endocrinol 17, 677-691, Vo et al. (2012) Eur J Med Chem., 286-93].

[1] = system: IGROV1-R10 ovarian cancer cells; assay: PARP and caspase 3 cleavage by western blot; design: key to PARP cleavage: +: a little band corresponding to the 85 kDa cleaved form of PARP is observable on the western blot; ++: a band corresponding to the 85 kDa cleaved form of PARP is clearly observable on the western blot; +++: PARP in nearly completely cleaved
Procedure: Exponentially growing cells were transfected by siRNA as described below, and after 48 h, cells were continuously exposed to (Het)aromatic oligosystems (10, 25 or 50 μM) dissolved in DMSO (<0.1% of total volume) for 4 to 24 supplementary hours.
Cells were seeded in 25 cm^2 flasks the day before to reach 30-50% confluency at the time of transfection. The transfection INTERFERin™ reagent (Polyplus Transfection, Strasbourg. France) was added to siRNA diluted in Opti-MEM® reduced serum medium (Invitrogen, Cergy-Pontoise, France) and complexes formation was allowed to proceed for 15 min at RT before being applied to cells. The final siRNA concentration in the flasks was 20 nM.
Cells were rinsed with ice-cold PBS, suspended in a lysis buffer [RIPA:NaCl 150 mM, Tris (pH 8) 50 mM, Triton X100 1%, PMSF 4 mM, EDTA 5 mM, NaF 10 mM, NaPPi 10 mM, Na3OV4 1 mM, aprotinin 0.5 μl/ml and 4.6 ml ultra pure water] and incubated on ice for 30 minutes. Lysates were collected after centrifugation (13200 g, 10 min, 4° C.) and protein concentrations were determined using the Bradford assay (Bio-Rad, Hercules, USA). 20 μg of protein were separated by SDS-PAGE on a 4-12% gradient polyacrylamide gel (Invitrogen, Cergy-Pontoise, France) and transferred to Hybond-PVDF membranes (Amersham, Orsay, France). After blocking non-specific binding sites for 1 hour at RT by 5% (w/v) non-fat dry milk in TBS with 0.1% (v/v) Tween20 (T-TBS), the membranes were incubated overnight at 4° C. with the following rabbit monoclonal antibody: PARP, caspase-3 and Bcl-xL, Bim (Cell Signaling Technology, Ozyme, Saint-Quentin-en-Yvelines, France), Mcl-1 (Santa Cruz, Le Perray-en-Yvelines, France), HSP-70, Noxa (Calbiochem, Fontenay-sous-Bois, France), (Cell Signalling) and Actin (Sigma-Aldrich, Saint-Quentin Fallavier, France). Membranes were then washed with T-TBS and incubated for 1 hour with the appropriate horseradish peroxidase-conjugated anti-rabbit or anti-mouse (Amersham, Orsay, France) secondary antibodies. Revelation was done using a luminescent Image Analyzer (GE Healthcare, Orsay, France).

Mcl-1/Puma interaction = target: T2, Mcl-1/Puma interaction (Homo sapiens, UniProt Q07820); assay: BRET assay, Mcl-1/Puma interaction; settings: BRET in Hela cells, 16 hours
T2 construct: expressed in transfected cells; host or cells: HeLa cells
Procedure: as §1

[2] = system: IGROV1-R10 chemoresistant ovarian cancer cells; assay: Pyridoclax / ABT-737 association, apoptotic cell death
Procedure: FIG. 4 represents the effect of the association of Pyridoclax with ABT-737 on chemoresistant ovarian cancer cells IGROV1-R10 (top) and SKOV3 (bottom). Cells were concomitantly (A, E) or sequentially (B) exposed to 25 μM Pyridoclax and 5 μM ABT-737, and cellular effects were assessed either longitudinally (A, B, E) or after 24 h (C, D, F). [A, B, E] real time cellular activity assessed by impedancmetry (xCELLigence technology), after concomitant exposure (A, E) or sequential exposure (B; 24 h Pyridoclax, then ABT-737). [C]: Cellular morphology and DNA content histograms after a 24 h concomitant exposure. [D and F]: PARP and caspase 3 cleavage after a 24 h concomitant exposure.
Adherent and floating cells were pooled, washed with 1×PBS and centrifuged at 200 g for 5 min before staining by Annexin V, propidium iodide or both, as recommended by the manufacturer (Roche Diagnostic, Indianapolis, USA). Briefly, 100 μl of Annexin V—Flit or propidium iodide or both were added on the cells pellet (10^6 cells) and incubated 15 minutes at room temperature in obscurity. 500 μl of sample buffer was then added on the suspensions that were thereafter analyzed using a Gallios flow cytometer (Beckman Coulter, Roissy, France) and cell cycle distribution was determined using Kaluza acquisition software (Beckman Coulter).
Cells were rinsed with ice-cold PBS, suspended in a lysis buffer [RIPA:NaCl 150 mM, Tris (pH 8) 50 mM, Triton X100 1%, PMSF 4 mM, EDTA 5 mM, NaF 10 mM, NaPPi 10 mM, Na3OV4 1 mM, aprotinin 0.5 μl/ml and 4.6 ml ultra pure water] and incubated on ice for 30 minutes. Lysates were collected after centrifugation (13200 g, 10 min, 4° C.) and protein concentrations were determined using the Bradford assay (Bio-Rad, Hercules, USA). 20 μg of protein were separated by SDS-PAGE on a 4-12% gradient polyacrylamide gel (Invitrogen, Cergy-Pontoise, France) and transferred to Hybond-PVDF membranes (Amersham, Orsay, France). […]

T2 sequence (Q07820 whole entry): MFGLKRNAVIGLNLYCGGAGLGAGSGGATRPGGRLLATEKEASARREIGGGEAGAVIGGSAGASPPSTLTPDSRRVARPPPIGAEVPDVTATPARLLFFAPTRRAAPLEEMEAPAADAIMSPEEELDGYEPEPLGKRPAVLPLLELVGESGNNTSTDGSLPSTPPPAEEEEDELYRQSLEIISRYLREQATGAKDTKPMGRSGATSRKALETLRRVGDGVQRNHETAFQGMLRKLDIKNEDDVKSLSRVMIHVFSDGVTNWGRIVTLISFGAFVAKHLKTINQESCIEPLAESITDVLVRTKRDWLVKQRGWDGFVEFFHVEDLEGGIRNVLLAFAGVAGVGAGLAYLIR
T1 sequence (Q07820 whole entry): as above

- effect on Noxa/Mcl-1 interaction (Noxa/Mcl-1 interaction): able to disrupt
- effect on Mcl-1/Puma interaction (Mcl-1/Puma interaction; 10 μM): able to disrupt
- inhibition at 10 µM (Mcl-1/Puma interaction): ~50%
SMILES: Cc1cc(-c2ncc(-c3cccnc3)cc2/C=C/c2ccccc2)cnc1-c1cccnc1 [Pyridoclax, 5,6′-di(pyridin-3-yl)-5′-methyl-3-((E)-styryl)-2,3′-bipyridine]
- cleavage of PARP and caspase 3 ([1]; IGROV1-R10, Pyridoclax associated to siXL1): complete cleavage of PARP and caspase 3
- PARP cleavage ([1]; Molecule + Bcl-xL targeting siRNA): +++
- cell death, combination with ABT-737 ([2]; IGROV1-R10, 25 μM Pyridoclax + 5 μM ABT-737): massive apoptotic cell death
- cell death as single agent ([2]; IGROV1-R10, single agent): neither ABT-737 nor Pyridoclax induced cell death as single agents
